Test results as given in PubChem BioAssay (NCI).
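Exposure lasted 48 hours, with cells grown in 96-well plates and compounds tested at five concentrations. GI50: concentration for 50% inhibition of growth. TGI: concentration producing complete growth inhibition.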 Where a SMILES comes first, the peptide text is derived from it.

Columns and labels:
Assay in all cases: NCI tumour cell line growth inhibition, 48 h
K-562 leukemia = system: K-562 leukemia
COLO 205 colon = system: COLO 205 colon
CAKI-1 renal = system: CAKI-1 renal
SW-620 colon = system: SW-620 colon
SNB-75 CNS = system: SNB-75 CNS
IGROV1 ovarian = system: IGROV1 ovarian
NCI-H522 lung = system: NCI-H522 lung
OVCAR-5 ovarian = system: OVCAR-5 ovarian
EKVX NSCLC = system: EKVX NSCLC
SNB-19 CNS = system: SNB-19 CNS

SMILES | TGI (K-562 leukemia) [µM] | TGI (COLO 205 colon) [µM] | TGI (CAKI-1 renal) [µM] | TGI (SW-620 colon) [µM] | TGI (SNB-75 CNS) [µM] | TGI (IGROV1 ovarian) [µM] | TGI (NCI-H522 lung) [µM] | TGI (OVCAR-5 ovarian) [µM] | TGI (EKVX NSCLC) [µM] | TGI (SNB-19 CNS) [µM] | GI50 (K-562 leukemia) [µM] | GI50 (COLO 205 colon) [µM] | GI50 (CAKI-1 renal) [µM] | GI50 (SW-620 colon) [µM] | GI50 (SNB-75 CNS) [µM] | GI50 (IGROV1 ovarian) [µM] | GI50 (NCI-H522 lung) [µM] | GI50 (SNB-19 CNS) [µM] | GI50 (OVCAR-5 ovarian) [µM] | GI50 (EKVX NSCLC) [µM]
COc1ccc(C(c2ccc(C(C)C)cc(=O)c2O)c2ccc3cccnc3c2O)cc1 (centres undefined) | > 100 | 19.3 | 5.15 | 24.4 | 0.589 | 15.3 | 10.9 | 6.32 | 7.86 |  |  |  |  |  |  |  |  |  |  | 
COC(=O)C1(C(=O)OC)CC2c3c(c4ccccc4n3C)CC(C1=O)N2Cc1ccccc1 (centres undefined) | > 100 | > 100 | > 100 | > 100 | 92 | > 100 | > 100 | > 100 | > 100 | > 100 |  |  |  |  |  |  |  |  |  | 
ClCc1ccc(-c2ccc(Cn3cnc4c(Cl)nc(Cl)nc43)cc2)cc1 | > 100 | 8.53 | 4.32 | 3.41 | 7.81 | 2.28 | 6.79 | 32.4 | 15.5 | 4.15 | 10.4 | 2.72 | 1.84 | 1.83 | 2.63 | 0.885 | 2.33 | 1.95 | 17.8 | 3.32
CC(C)CC(NC(=O)C(CC(C)C)NC(=O)C(Cc1cnc[nH]1)NC(=O)C(C)NC(=O)C(NC(=O)C(C)NC(=O)C(Cc1c[nH]c2ccccc12)NC(=O)C(CCC(=O)O)NC(=O)C(N)Cc1ccccc1)C(C)C)C(N)=O (centres undefined) (H-FEWAVAHLL-NH2; configuration not given here) | > 100 | > 100 | > 100 | > 100 | > 100 | > 100 | > 12.5 | > 12.5 | > 100 | > 100 | > 100 | > 100 | > 100 | > 100 |  | > 100 |  |  |  | > 100
COc1cc(/C=C2\CN(C)C/C(=C\c3cc(OC)c(OC)c(OC)c3)C2=O)cc(OC)c1OC | > 100 | 0.461 | 0.951 | 1.42 | 2.48 | 1.73 | 0.624 | 1.17 |  | 2.6 | 0.334 | 0.23 | 0.288 | 0.347 | 0.667 | 0.413 | 0.234 | 1.14 | 0.357 | 
ClC1CCC2OOC1O2 (centres undefined) | > 100 | > 100 | > 100 | > 100 | > 100 | > 100 | > 100 | > 100 | > 100 | > 100 |  |  |  |  |  |  |  |  |  | 
Cc1oc2c(C)c(O)c3c(c2c1C1(C)OCCO1)C(=O)C=C(Cl)C3=O | > 100 | > 100 | > 100 | > 100 |  | > 100 | > 100 | > 100 | > 100 | > 100 |  |  |  |  |  |  |  |  |  | 
CC(=O)NC(CCCCNC(=O)N(CCCl)N=O)C(=O)NCc1ccccc1 (centres undefined) | > 100 | > 100 | > 100 | > 100 | > 100 | > 100 | > 100 |  | > 100 | > 100 |  |  |  |  |  |  |  |  |  | 
NC(CNO)C(=O)O (centres undefined) |  | > 100 | > 100 | > 100 | > 100 | > 100 | > 100 | > 100 | > 100 | > 100 |  |  |  |  |  |  |  |  |  | 
CCOC(=O)c1ccc(N(CCOS(C)(=O)=O)CCOS(C)(=O)=O)cc1C | > 100 | > 100 | 27.1 | > 100 | 87.1 | > 100 | 61.8 | 94 | > 100 | > 100 | 49.7 | 38.4 | 6.32 | 88.2 | 34.5 | 91.4 | 18.8 | 62.6 | 38.1 | 29.5
CN[C@]12CC3(C=CC(=O)C=C3)O[C@@]1(Cc1ccc(OC)cc1)N(C)C(=O)N2 | > 100 | 6.66 | 10.2 | 6.99 | 23.3 | 4.1 | 2.14 | 5.59 | 19.1 | 14.5 | 1.58 | 2.53 | 2.69 | 2.1 | 10.4 | 1.78 | 0.371 | 3.63 | 2.21 | 4.23
COc1cc2nc(Sc3c([N+](=O)[O-])ncn3C)[nH]c2cc1OC |  | 30.2 | 37.2 | > 100 | > 100 | > 100 |  | > 100 | 80.7 | > 100 |  |  |  |  |  |  |  |  |  | 
Cn1ncc2c(/N=C/c3cccs3)[nH]c(=S)nc21 | > 100 | 65.7 | > 100 | > 100 | > 100 | > 100 | > 100 | > 100 | 99.8 | > 100 | 21.2 | 22.8 | 33.4 | 31.5 | > 63.7 | > 61.2 | > 68.2 | 49.9 | 54 | 41.1
O=C1OCc2c1cc(F)cc2[N+](=O)[O-] | > 100 | > 100 | > 100 | > 100 | > 100 | > 100 | > 100 | > 100 |  | > 100 | > 100 | 47.6 | > 100 | > 100 | > 100 | > 100 | > 100 | > 100 | > 100 | 
COc1cc(/C=C/C(=O)c2ccc(Nc3ncnc4ccccc34)cc2)cc(OC)c1 |  | 39.8 | > 100 | 9.68 | > 100 | 60.2 | 30.1 | 57.3 | > 100 | 83.2 |  | 9.59 | 19.3 | 2.38 | 24.1 | 13.5 | 6.69 | 9.99 | 20.3 | 51.9
